Results on 1 molecule are retold here after patent publication US8609610B2, “Inhibitors of the trypsin-like site of the proteasome and methods of use thereof” (Trustees of Dartmouth College, priority 2011, dated 2013).

Test [1] addresses caspase-like site of 26S proteasomes (Oryctolagus cuniculus, UniProt A0A5F9DQW2). Briefly: Inhibition of purified 26S proteasomes, substrate Ac-nLPnLD-amc. The test is classed as biochemical, rabbit. To be noted: >>30 no inhibition at 30 μM, >30 inhibition between 10 and 50% at 30 μM, read-out: IC50 for sites in 26S proteasomes: Casp-L.
Test [2] deals with T1, chymotrypsin-like sites (β5) of proteasome in MM cells.
T1 construct: other: NCI-H929; bortezomib 100 nM 1 h; bortezomib 11 nM 1 h; bortezomib 3.7 nM 1 h; bortezomib 33 nM 1 h; other: NCI-H9
Briefly: PROTEASOMEGLO assay of proteasome inhibition in MM cells. In kind it is cell-based. As to conditions: 6 hours, >>30 no inhibition at 30 μM, >30 inhibition 10-50% at 30 μM, read-out: IC50 for sites: Chym-L.

The target of test [3] is T2, trypsin-like sites (β2) of proteasome in MM cells (Homo sapiens, UniProt Q99436).
T2 construct: endogenous in cells; host or cells: NCI-H929, RPMI-8226 and other MM cell lines
T2 sequence (Q99436 44-277): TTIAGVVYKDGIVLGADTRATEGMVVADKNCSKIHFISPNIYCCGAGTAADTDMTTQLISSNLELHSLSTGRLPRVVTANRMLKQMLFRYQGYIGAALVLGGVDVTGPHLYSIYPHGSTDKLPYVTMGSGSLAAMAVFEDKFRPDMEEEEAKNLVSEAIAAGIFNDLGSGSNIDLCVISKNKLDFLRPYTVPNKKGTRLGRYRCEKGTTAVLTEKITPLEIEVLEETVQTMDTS
The test is described as above. As to conditions: for IC50: 6 hours, >>30 no inhibition at 30 μM, >30 inhibition 10-50% at 30 μM, read-out: IC50 for sites: Tr-L. The test is classed as cell-based.

The subject of test [4] is trypsin-like sites (β2) of proteasome in MM cells. The test is described as above. In kind it is cell-based.
Test [5] has as its target T3, caspase-like sites (β1) of proteasome in MM cells (Homo sapiens, UniProt P28072+Q99436).
T3 sequence (P28072 35-239): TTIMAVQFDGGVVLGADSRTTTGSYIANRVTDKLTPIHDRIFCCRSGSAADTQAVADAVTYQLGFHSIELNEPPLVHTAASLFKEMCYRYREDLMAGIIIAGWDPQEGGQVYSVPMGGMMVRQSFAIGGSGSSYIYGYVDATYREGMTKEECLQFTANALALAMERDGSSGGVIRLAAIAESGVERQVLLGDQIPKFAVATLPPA
T3 sequence (Q99436 44-277): T2 sequence (Q99436 44-277)
The test is described as above. The test is classed as cell-based. As to conditions: 6 hours, >>30 no inhibition at 30 μM, >30 inhibition 10-50% at 30 μM, read-out: IC50 for sites: Casp-L.

For a further test, the system named is NCI-H929 cells. The experiment in a line: ALAMAR BLUE cell viability assay. In kind it is cell-based. Put shortly:
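Myeloma lines were grown in RPMI-1640 with 10% FBS; viability of myeloma cells was read by ALAMAR BLUE mitochondrial dye conversion. PBMNC viability used CELL TITER-GLO ATP luminescence. Caspase-3/7 activity in NCI-H929 and MM1.R was measured with the APO-ONE homogeneous assay.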
In general terms: Resazurin is reduced to fluorescent resorufin, in cell work by metabolically active cells.

The target of another test is T4, cathepsin D (Homo sapiens, UniProt P07339).
T4 construct: endogenous in cells
Briefly: Cathepsin D activity assay (SENSOLYTE 520). In kind it is cell-based. As to conditions: concentrations as high as 27 μM. The procedure: Cathepsin B, H, L, S activity was measured with pan-cathepsin substrate Z-FR-amc (Kirschke & Wiederanders (1994) Methods Enzymol. 244:500-11) in extracts of cytosol-less cells at pH 6.0 (Screen, et al. (2010) supra). Cathepsin D activity was measured in cytosol-less extracts using SENSOLYTE 520 Cathepsin D Fluorometric Assay Kit (AnaSpec). Combined cathepsin D and E activity was measured using the same kit, in which cathepsin D substrate provided with the kit was replaced with 7-Methoxycoumarin-[…](Dnp)-X′-NH2 (SEQ ID NO:10; where “X′” stand for D-Arg) internally quenched fluorogenic substrate of cathepsin D and E. In this case, pH 3.0 assay buffer used for cell extraction. All activity observed using both procedures was inhibited by more than 98% by specific inhibitor of aspartic proteases pepstatin A.

A further test deals with β2 and β2i sites. The experiment in a line: MV-151 label-competition in extracts of RPMI-8226 MM cells. The test is classed as biochemical. As to conditions: extracts of RPMI-8226 cells, MV-151 probe. The source says: Multiple myeloma cells express constitutive proteasomes and immunoproteasomes, and substrates used for the measurement of activity were cleaved by both. To determine whether there were any differences in inhibition of constitutive proteasomes or immunoproteasomes by NC-002, NC-012, and NC-022, the fluorescent activity-based probe MV-151 (Verdoes, et al. (2006) Chem. Biol. 13:1217-1226) was used in a label-competition experiment. Extracts of RPMI-8226 MM cells (which express more immunoproteasomes than NCI-H929 cells) were treated first with the NC inhibitors and then with the MV-151 probe. This was followed by fractionation on SDS-PAGE to separate proteasome subunits and imaging to reveal those subunits labeled by the probe (i.e., unmodified by the inhibitors).

Broadly, the IC50 is the midpoint of a concentration-inhibition curve. As a reminder, the inhibition is the change of the read-out against control, counted positive when it falls. High values mean a strong effect, low ones a weak effect.

Like-named read-outs stand apart in the source and are kept apart here.

Sequence of caspase-like site of 26S proteasomes (A0A5F9DQW2 1-212): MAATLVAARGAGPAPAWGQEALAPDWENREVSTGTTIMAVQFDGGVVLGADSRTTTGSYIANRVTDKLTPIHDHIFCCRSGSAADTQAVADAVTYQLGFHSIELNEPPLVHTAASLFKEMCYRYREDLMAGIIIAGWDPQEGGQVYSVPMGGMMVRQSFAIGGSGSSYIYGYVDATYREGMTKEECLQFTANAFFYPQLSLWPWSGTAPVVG
T4 sequence (P07339 65-412): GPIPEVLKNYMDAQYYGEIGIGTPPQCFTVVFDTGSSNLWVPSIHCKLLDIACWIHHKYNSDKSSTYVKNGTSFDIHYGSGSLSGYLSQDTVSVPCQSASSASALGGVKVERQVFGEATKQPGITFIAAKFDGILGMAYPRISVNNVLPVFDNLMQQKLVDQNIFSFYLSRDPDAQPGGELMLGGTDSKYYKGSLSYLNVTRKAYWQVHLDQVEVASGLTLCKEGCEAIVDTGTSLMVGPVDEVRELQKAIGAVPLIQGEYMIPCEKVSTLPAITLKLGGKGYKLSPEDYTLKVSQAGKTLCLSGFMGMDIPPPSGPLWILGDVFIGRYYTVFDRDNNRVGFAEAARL

As to `Cc1c(O)cccc1C(=O)N[C@H](C(=O)N[C@@H](CO)C(=O)N[C@@H](CCCNC(=N)N)C(=O)[C@@]1(C)CO1)C(C)C` [NC-022, HMB-Val-Ser-Arg-ek], the 50% inhibitory concentration (IC50) in test [1] is 16 µM; in test [2] (NCI-H929 cells) it was > 30 µM; in test [2] (RPMI-8226 cells) it was > 30 µM; in test [3] (NCI-H929 cells), 0.9 µM; in test [3] (RPMI-8226 cells), 24 µM; in test [5] (NCI-H929 cells), > 30 µM. Further, in test [5] (RPMI-8226 cells), the IC50 was > 30 µM. In test [3] (3 μM NC-022, within 4-6 hours after addition), this molecule had an inhibition at 3 µM of 90%. Besides, the “inhibition of trypsin-like activity by NC-022 treatment” value in test [3] (NCI-H929 and KMS-12-BM, 5 hours after NC-022 addition) is “that trypsin-like activity was inhibited by >90% but inhibition of the chymotrypsin-like activity was not altered by NC-022 treatment”. Moreover, the “inhibition of trypsin-like activity in live cells” value in test [3] (NCI-H929 cells treated overnight) is on record as “sub-micromolar concentrations”. Also, the “difference in IC50 for trypsin-like activity between NCI-H929 and RPMI-8226” value in test [4] is 25 fold. Also, in test [4] (RPMI-8226 cells), the “time to steady-state proteasome inhibition” value was > 6 h. Besides, the “sensitization: change of IC50 of LU-005” value in the test with NCI-H929 cells (LU-005 1 hour, then NC-022 48 hours, maximal at 3 μM NC-022) is listed as “up to 8.5 fold”. In addition, the cell viability result in the test with NCI-H929 cells (NCI-H929, 48 hours, even at concentrations that completely inhibited the trypsin-like sites) is “No loss of viability”. Moreover, the “inhibition of cathepsin D” value against cathepsin D is reported as “did not inhibit”. Also, the “inhibition of constitutive (β2) versus immunoproteasome (β2i) trypsin-like sites” value in the test on β2 and β2i sites was “equipotent inhibitors of the trypsin-like sites of constitutive and immunoproteasomes”.
